Experimental data as given in US20180155757A1, “IDENTIFICATION OF BACTERIA THAT ARE RESISTANT TO CARBAPENEMS BY MEMBRANE IMPERVIOUSNESS” (BIOMÉRIEUX, priority 2015, published 2018).

Experiments:
Type in all cases: cell-based
[1] = test system: E. coli 1008077 (VIM-1 producer); experiment: MIC of PMBN
Procedure: (§1) Likewise, prior to carrying out the discriminating method according to the invention, the PMBN-sensitivity of each of the model strains used was evaluated by means of a method of microdilution in liquid medium.
(§2) To do this, each of the strains was cultured in Mueller-Hinton broth (MHII-Becton Dickinson®, United States). On inocula containing 2×10^5 CFU/ml, serial doubling dilutions were carried out for the PMBN in order to determine the minimum inhibitory concentrations. The PMBN-sensitivity was read after 18 hours of incubation at 37° C., by addition of 0.2 mg/ml of iodonitrotetrazolium chloride (Sigma-Aldrich®, United States).

[2] = test system: K. pneumoniae 0901027 (KPC-3 producer); experiment: MIC of PMBN
Procedure: as §1, §2

K. pneumoniae 1002015 = experiment: MIC of PMBN
Procedure: as §1, §2

[3] = test system: K. pneumoniae 1012335 (OXA-48 producer); experiment: MIC of PMBN
Procedure: as §1, §2

E. aerogenes 9203076 = experiment: MIC of PMBN
Procedure: as §1, §2

[4] = test system: E. cloacae 1008073 (VIM-1 producer); experiment: MIC of PMBN
Procedure: as §1, §2

[5] = test system: E. cloacae 1008079 (IMP-1 producer); experiment: MIC of PMBN
Procedure: as §1, §2

E. aerogenes 9306071 = experiment: MIC of PMBN
Procedure: as §1, §2

C. freundii 0403012 = experiment: MIC of PMBN
Procedure: as §1, §2

E. cloacae 9402034 = experiment: MIC of PMBN
Procedure: as §1, §2

K. pneumoniae 1204034 = experiment: MIC of PMBN
Procedure: as §1, §2

[6] = test system: K. pneumoniae 1108002 (KPC-3 producer); experiment: MIC of PMBN
Procedure: as §1, §2

[7] = test system: K. pneumoniae 1108001 (KPC-2 producer); experiment: MIC of PMBN
Procedure: as §1, §2

[8] = test system: E. coli 1012292 (KPC-2 producer); experiment: MIC of PMBN
Procedure: as §1, §2

[9] = test system: E. cloacae 1101172 (NDM producer); experiment: MIC of PMBN
Procedure: as §1, §2

[10] = test system: K. pneumoniae 0404024 (VIM-1 producer); experiment: MIC of PMBN
Procedure: as §1, §2

[11] = test system: E. cloacae 1008096 (VIM-1 producer); experiment: MIC of PMBN
Procedure: as §1, §2

C. freundii 1204047 = experiment: MIC of PMBN
Procedure: as §1, §2

E. cloacae 9304026 = experiment: MIC of PMBN
Procedure: as §1, §2

E. coli 1204043 = experiment: MIC of PMBN
Procedure: as §1, §2

[12] = test system: K. pneumoniae 1108007 (VIM-1 producer); experiment: MIC of PMBN
Procedure: as §1, §2

[13] = test system: E. cloacae 0901026 (KPC-2 producer); experiment: MIC of PMBN
Procedure: as §1, §2

[14] = test system: K. pneumoniae 1104053 (OXA-48 producer); experiment: MIC of PMBN
Procedure: as §1, §2

[15] = test system: E. coli 0506040 (VIM-1 producer); experiment: MIC of PMBN
Procedure: as §1, §2

E. aerogenes 1204048 = experiment: MIC of PMBN
Procedure: as §1, §2

[16] = test system: S. marcescens 1008175 (IMP-1 producer); experiment: MIC of PMBN
Procedure: as §1, §2

[17] = test system: Enterobacter aerogenes EA 27; experiment: MIC of PMBN, microdilution in liquid medium
Procedure: as §1, §2

With polymyxin B nonapeptide [PMBN] the MICPMBN [1] was “MICPMBN = 1024 μg/ml”, the MICPMBN [2] was “MICPMBN >1024 μg/ml” and the MICPMBN (K. pneumoniae 1002015) was “MICPMBN = 1024 μg/ml”. The MICPMBN [3] was “MICPMBN = 1024 μg/ml”, the MICPMBN (E. aerogenes 9203076) was “MICPMBN = 1024 μg/ml” and the MICPMBN [4] was “MICPMBN = 1024 μg/ml”. The MICPMBN [5] was “MICPMBN >1024 μg/ml”, the MICPMBN (E. aerogenes 9306071) was “MICPMBN = 1024 μg/ml” and the MICPMBN (C. freundii 0403012) was “MICPMBN = 256 μg/ml”. For the same substance, the MICPMBN (E. cloacae 9402034) was “MICPMBN >1024 μg/ml”, the MICPMBN (K. pneumoniae 1204034) was “MICPMBN = 256 ng/ml” and the MICPMBN [6] was “MICPMBN >1024 μg/ml”. The MICPMBN [7] was “MICPMBN = 1024 μg/ml”, the MICPMBN [8] was “MICPMBN = 1024 μg/ml” and the MICPMBN [9] was “MICPMBN = 1024 μg/ml”. The MICPMBN [10] was “MICPMBN >1024 μg/ml”, the MICPMBN [11] was “MICPMBN = 1024 μg/ml” and the MICPMBN (C. freundii 1204047) was “MICPMBN = 1024 μg/ml”. The MICPMBN (E. cloacae 9304026) was “MICPMBN >1024 μg/ml”, the MICPMBN (E. coli 1204043) was “MICPMBN = 512 μg/ml” and the MICPMBN [12] was “MICPMBN = 1024 μg/ml”. For the same substance, the MICPMBN [13] was “MICPMBN = 1024 μg/ml”, the MICPMBN [14] was “MICPMBN = 1024 μg/ml” and the MICPMBN [15] was “MICPMBN = 128 μg/ml”. The MICPMBN (E. aerogenes 1204048) was “MICPMBN >1024 μg/ml”, the MICPMBN [16] was “MICPMBN = 1024 μg/ml” and the MICPMBN [17] was “MICPMBN = 1024 μg/ml”.
